The values below come from US8916557B2, “Substituted 4-Aryl-N-phenyl-1,3,5-triazin-2-amines” (Bayer Intellectual Property GmbH, priority 2011, dated 2014).

Holding throughout (type): cell-based
The subject of assay [1] is B16F10 mouse melanoma cells. Kind of assay: Proliferation assay (crystal violet), B16F10. To be noted: B16-F10, read-out: Inhibition of B16F10 cell proliferation. On the procedure: (§1) Cultivated tumour cells (NCI-H460, human non-small cell lung carcinoma cells, ATCC HTB-177; DU 145, hormone-independent human prostate carcinoma cells, ATCC HTB-81; HeLa-MaTu, human cervical carcinoma cells, EPO-GmbH, Berlin; HeLa-MaTu-ADR, multidrug-resistant human cervical carcinoma cells, EPO-GmbH, Berlin; HeLa human cervical tumour cells, ATCC CCL-2; Caco-2 human colorectal carcinoma, ATCC HTB-37; B16F10 mouse melanoma cells, ATCC CRL-6475) were plated at a density of 5000 cells/well (DU145, HeLa-MaTu-ADR), 3000 cells/well (NCI-H460, HeLa-MaTu, HeLa), 1500 cells/well (Caco-2), or 1000 cells/well (B16F10) in a 96-well multititer plate in 200 μL of their respective growth medium supplemented 10% fetal calf serum. After 24 hours, the cells of one plate (zero-point plate) were stained with crystal violet (see below), while the medium of the other plates was replaced by fresh culture medium (200 μl), to which the test substances were added in various concentrations (0 μM, as well as in the range of 0.001-10 μM; the final concentration of the solvent dimethyl sulfoxide was 0.5%). The cells were incubated for 4 days in the presence of test substances. Cell proliferation was determined by staining the cells with crystal violet: the cells were fixed by adding 20 μl/measuring point of an 11% glutaric aldehyde solution for 15 minutes at room temperature. After three washing cycles of the fixed cells with water, the plates were dried at room temperature. The cells were stained by adding 100 μl/measuring point of a 0.1% crystal violet solution (pH 3.0). After three washing cycles of the stained cells with water, the plates were dried at room temperature. The dye was dissolved by adding 100 μl/measuring point of a 10% acetic acid solution. The extinction was determined by photometry at a wavelength of 595 nm. The change of cell number, in percent, was calculated by normalization of the measured values to the extinction values of the zero-point plate (=0%) and the extinction of the untreated (0 μm) cells (=100%). The IC50 values were determined by means of a 4 parameter fit.

In assay [2] the test system is NCI-H460, human non-small cell lung carcinoma cells. Kind of assay: Proliferation assay (crystal violet), NCI-H460. To be noted: read-out: Inhibition of H460 cell proliferation (activity range). On the procedure: as §1
Assay [3] has as its system Caco-2 human colorectal carcinoma. Kind of assay: Proliferation assay (crystal violet), Caco-2. Particulars: CACO-2 cells, read-out: Inhibition of CACO-2 cell proliferation.
In assay [4] the test system is DU 145, hormone-independent human prostate carcinoma cells. The assay can be described thus: Proliferation assay (crystal violet), DU 145. To be noted: DU145 cells, read-out: Inhibition of DU145 cell proliferation.
Assay [5] concerns HeLa-MaTu-ADR, multidrug-resistant human cervical carcinoma cells. Kind of assay: Proliferation assay (crystal violet), HeLa-MaTu-ADR. Particulars: read-out: Inhibition of HeLa/MaTu/ADR cell proliferation. On the procedure:
as §1

On to `CS(=O)(=O)Cc1cccc(Nc2ncnc(-c3ccc(F)cc3OCCCC(F)(F)F)n2)c1` [Example 59, 4-[4-Fluoro-2-(4,4,4-trifluorobutoxy)phenyl]-N-{3-[(methylsulfonyl)methyl]phenyl}-1,3,5-triazin-2-amine], for which the IC50 in assay [1] came out at 330 nM; in assay [2], 350 nM; in assay [3] it was 570 nM; in assay [4], 220 nM; in assay [5], 220 nM.

For the compound `COc1cc(F)ccc1-c1ncnc(Nc2cccc(CS(=O)(=O)C3CCCCC3)c2)n1` [Example 9, N-{3-[(Cyclohexylsulfonyl)methyl]phenyl}-4-(4-fluoro-2-methoxyphenyl)-1,3,5-triazin-2-amine], the IC50 in assay [1] came out at 1300 nM; in assay [2], 690 nM; in assay [3] it was 580 nM; in assay [4], 840 nM; in assay [5], 420 nM.

Turning to `CS(=O)(=O)Cc1cccc(Nc2ncnc(-c3ccc(F)cc3OCCF)n2)c1` [Example 61, 4-[4-Fluoro-2-(2-fluoroethoxy)phenyl]-N-{3-[(methylsulfonyl)methyl]phenyl}-1,3,5-triazin-2-amine], the IC50 amounted to 740 nM in assay [1]; 610 nM in assay [2]; 1100 nM in assay [3]; 480 nM in assay [4]; 380 nM in assay [5].

In the case of `CS(=O)(=O)Cc1cccc(Nc2ncnc(-c3ccc(F)cc3OCc3cccc(Cl)c3)n2)c1` [Example 85, 4-{2-[(3-Chlorobenzyl)oxy]-4-fluorophenyl}-N-{3-[(methylsulfonyl)methyl]phenyl}-1,3,5-triazin-2-amine], the IC50 in assay [1] came to 450 nM; in assay [2], 360 nM; in assay [3] it was 560 nM; in assay [4] it was 410 nM; in assay [5], 350 nM.

Consider `CS(=O)(=O)Cc1cccc(Nc2ncnc(-c3ccc(F)cc3OCc3ccccc3)n2)c1` [Example 4, 4-[2-(Benzyloxy)-4-fluorophenyl]-N-{3-[(methylsulfonyl)methyl]phenyl}-1,3,5-triazin-2-amine], for which the figures for the IC50 in assay [1], in assay [2] and in assay [5] were 130 nM, 150 nM and 100 nM, respectively.

As for `Cc1cc(COc2cc(F)ccc2-c2ncnc(Nc3cccc(CS(C)(=O)=O)c3)n2)ccn1` [Example 87, 4-{4-Fluoro-2-[(2-methylpyridin-4-yl)methoxy]-phenyl}-N-{3-[(methylsulfonyl)methyl]phenyl}-1,3,5-triazin-2-amine], the IC50 was 370 nM in assay [1]; 340 nM in assay [2]; 730 nM in assay [3]; 300 nM in assay [4]; 740 nM in assay [5].

With `CS(=O)(=O)Cc1cccc(Nc2ncnc(-c3ccc(Cl)cc3OC3CCCC3)n2)c1` [Example 29, 4-[4-Chloro-2-(cyclopentyloxy)phenyl]-N-{3-[(methylsulfonyl)methyl]phenyl}-1,3,5-triazin-2-amine], the IC50 in assay [1] worked out at 640 nM; in assay [2] it was 730 nM; in assay [3] it was 690 nM; in assay [4] it was 530 nM; in assay [5], 400 nM.

As for `CS(=O)(=O)Cc1cccc(Nc2ncnc(-c3cccc4c3OCCC4)n2)c1` [Example 12, 4-(3,4-Dihydro-2H-chromen-8-yl)-N-{3-[(methylsulfonyl)methyl]phenyl}-1,3,5-triazin-2-amine], the IC50 in assay [1] stood at 510 nM; in assay [2], 410 nM; in assay [3] it was 390 nM; in assay [4], 320 nM; in assay [5] it was 230 nM.

On to `CS(=O)(=O)Cc1cccc(Nc2ncnc(-c3ccc(F)cc3OCc3ccncc3)n2)c1` [Example 89, 4-[4-Fluoro-2-(pyridin-4-ylmethoxy)phenyl]-N-{3-[(methylsulfonyl)methyl]phenyl}-1,3,5-triazin-2-amine], for which the IC50 in assay [1] worked out at 250 nM; in assay [2], 170 nM; in assay [3] it was 310 nM; in assay [4], 180 nM; in assay [5] it was 340 nM.

For `COc1cc(F)c(F)cc1-c1ncnc(Nc2cccc(CS(C)(=O)=O)c2)n1` [Example 1, 4-(4,5-Difluoro-2-methoxyphenyl)-N-{3-[(methylsulfonyl)methyl]phenyl}-1,3,5-triazin-2-amine], the IC50 was 1000 nM in assay [1], 910 nM in assay [2], 830 nM in assay [4] and 400 nM in assay [5].

With `COc1cc(F)ccc1-c1ncnc(Nc2cc(F)cc(CS(C)(=O)=O)c2)n1` [Example 10, 4-(4-Fluoro-2-methoxyphenyl)-N-{3-fluoro-5-[(methylsulfonyl)methyl]phenyl}-1,3,5-triazin-2-amine], the IC50 came to 270 nM in assay [1], 220 nM in assay [2], 220 nM in assay [4] and 80 nM in assay [5].

For `CCOc1cc(F)ccc1-c1ncnc(Nc2cccc(CS(C)(=O)=O)c2)n1` [Example 42, 4-(2-Ethoxy-4-fluorophenyl)-N-{3-[(methylsulfonyl)-methyl]phenyl}-1,3,5-triazin-2-amine], the IC50 in assay [1] was found to be 370 nM; in assay [2] it was 290 nM; in assay [4] it was 260 nM; in assay [5], 220 nM.

With `CC#CCOc1cc(F)ccc1-c1ncnc(Nc2cccc(CS(C)(=O)=O)c2)n1` [Example 62, 4-[2-(But-2-yn-1-yloxy)-4-fluorophenyl]-N-{3-[(methylsulfonyl)methyl]phenyl}-1,3,5-triazin-2-amine], the IC50 in assay [1] was found to be 240 nM; in assay [2], 160 nM; in assay [4], 170 nM; in assay [5] it was 180 nM.

Consider `COc1cc(F)ccc1-c1ncnc(Nc2cccc(CS(C)(=O)=O)c2)n1` [Example 3, 4-(4-Fluoro-2-methoxyphenyl)-N-{3-[(methylsulfonyl)methyl]phenyl}-1,3,5-triazin-2-amine], for which the IC50 stood at 1700 nM in assay [1], 1200 nM in assay [2], 1200 nM in assay [4] and 920 nM in assay [5].

As for `COc1cc(F)ccc1-c1ncnc(Nc2cccc(CS(=O)(=O)C3CC3)c2)n1` [Example 40, N-{3-[(Cyclopropylsulfonyl)methyl]phenyl}-4-(4-fluoro-2-methoxyphenyl)-1,3,5-triazin-2-amine], the IC50 in assay [1] came to 820 nM; in assay [2] it was 600 nM; in assay [4], 600 nM; in assay [5], 510 nM.

For `CS(=O)(=O)Cc1cccc(Nc2ncnc(-c3ccc(F)cc3OCc3ccnc(Cl)c3)n2)c1` [Example 88, 4-{2-[(2-Chloropyridin-4-yl)methoxy]-4-fluorophenyl}-N-{3-[(methylsulfonyl)-methyl]phenyl}-1,3,5-triazin-2-amine], the IC50 in assay [1] came to 230 nM; in assay [2], 210 nM; in assay [4], 170 nM; in assay [5], 270 nM.

Turning to `CS(=O)(=O)Cc1cccc(Nc2ncnc(-c3cc(F)ccc3OCc3cccc(F)c3)n2)c1` [Example 31, 4-{5-Fluoro-2-[(3-fluorobenzyl)oxy]phenyl}-N-{3-[(methylsulfonyl)methyl]phenyl}-1,3,5-triazin-2-amine], the IC50 worked out at 280 nM in assay [1], 200 nM in assay [2], 280 nM in assay [4] and 160 nM in assay [5].

`COc1cc(F)ccc1-c1ncnc(Nc2ccc(F)c(CS(C)(=O)=O)c2)n1` [Example 33, 4-(4-Fluoro-2-methoxyphenyl)-N-{4-fluoro-3-[(methylsulfonyl)methyl]phenyl}-1,3,5-triazin-2-amine]: the IC50 in assay [1] worked out at 460 nM; in assay [2] it was 340 nM; in assay [4] it was 330 nM; in assay [5] it was 180 nM.
